Experiments:
[1] = The drug is tested on Bacteroides finegoldii strain: DSM17565 for biotransformation. The drug concentrations were measured before and after a 12-h incubation by liquid-chromatography-coupled mass spectrometry (LC–MS); details: 2 µM
[2] = The drug is tested on Escherichia coli strain: BW25113 for biotransformation. The drug concentrations were measured before and after a 12-h incubation by liquid-chromatography-coupled mass spectrometry (LC–MS); details: 2 µM
[3] = The drug is tested on Dorea formicigenerans strain: ATCC27755 for biotransformation. The drug concentrations were measured before and after a 12-h incubation by liquid-chromatography-coupled mass spectrometry (LC–MS); details: 2 µM
[4] = The drug is tested on Bifidobacterium breve strain: DSM20213 for biotransformation. The drug concentrations were measured before and after a 12-h incubation by liquid-chromatography-coupled mass spectrometry (LC–MS); details: 2 µM
[5] = The drug is tested on Collinsella aerofaciens strain: ATCC25986 for biotransformation. The drug concentrations were measured before and after a 12-h incubation by liquid-chromatography-coupled mass spectrometry (LC–MS); details: 2 µM
[6] = The drug is tested on Anaerococcus hydrogenalis strain: DSM7454 for biotransformation. The drug concentrations were measured before and after a 12-h incubation by liquid-chromatography-coupled mass spectrometry (LC–MS); details: 2 µM
[7] = The drug is tested on Providencia stuartii strain: ATCC25827 for biotransformation. The drug concentrations were measured before and after a 12-h incubation by liquid-chromatography-coupled mass spectrometry (LC–MS); details: 2 µM
[8] = The drug is tested on Clostridium asparagiforme strain: DSM15981 for biotransformation. The drug concentrations were measured before and after a 12-h incubation by liquid-chromatography-coupled mass spectrometry (LC–MS); type: ADME; parameters: dose 2 uM, timepoint 0 vs 12 hours; details: enterocloster asparagiformis, 2 µM
[9] = The drug is tested on Bifidobacterium longum subsp. Infantis strain: CCUG52486 for biotransformation. The drug concentrations were measured before and after a 12-h incubation by liquid-chromatography-coupled mass spectrometry (LC–MS); details: 2 µM
[10] = The drug is tested on Eubacterium rectale strain: ATCC33656 for biotransformation. The drug concentrations were measured before and after a 12-h incubation by liquid-chromatography-coupled mass spectrometry (LC–MS); details: agathobacter rectalis, 2 µM
[11] = parabacteroides distasonis, 12 h, 2 µM
Description: The drug is tested on Parabacteroides distasonis strain: ATCC8503 for biotransformation. The drug concentrations were measured before and after a 12-h incubation by liquid-chromatography-coupled mass spectrometry (LC–MS)

[12] = The drug is tested on Eubacterium hallii strain: DSM3353 for biotransformation. The drug concentrations were measured before and after a 12-h incubation by liquid-chromatography-coupled mass spectrometry (LC–MS); details: anaerobutyricum hallii, 2 µM
[13] = The drug is tested on Anaerotruncus colihominis strain: DSM17241 for biotransformation. The drug concentrations were measured before and after a 12-h incubation by liquid-chromatography-coupled mass spectrometry (LC–MS); details: 2 µM
[14] = The drug is tested on Coprococcus comes strain: ATCC27758 for biotransformation. The drug concentrations were measured before and after a 12-h incubation by liquid-chromatography-coupled mass spectrometry (LC–MS); type: ADME; parameters: dose 2 uM, timepoint 0 vs 12 hours; details: 2 µM
[15] = The drug is tested on Bacteroides dorei strain: DSM17855 for biotransformation. The drug concentrations were measured before and after a 12-h incubation by liquid-chromatography-coupled mass spectrometry (LC–MS); details: phocaeicola dorei, 2 µM
[16] = The drug is tested on Bacteroides fragilis strain: HMW610 for biotransformation. The drug concentrations were measured before and after a 12-h incubation by liquid-chromatography-coupled mass spectrometry (LC–MS); details: 2 µM
[17] = bacteroides fragilis, 12 h, 2 µM
Description: The drug is tested on Bacteroides fragilis strain: 3397 (T10) for biotransformation. The drug concentrations were measured before and after a 12-h incubation by liquid-chromatography-coupled mass spectrometry (LC–MS)

[18] = The drug is tested on Bacteroides uniformis strain: ATCC8492 for biotransformation. The drug concentrations were measured before and after a 12-h incubation by liquid-chromatography-coupled mass spectrometry (LC–MS); details: 2 µM
[19] = The drug is tested on Bacteroides fragilis strain: HMW615 for biotransformation. The drug concentrations were measured before and after a 12-h incubation by liquid-chromatography-coupled mass spectrometry (LC–MS); details: 2 µM

Structure (SMILES) | Bacterial Biotransformation [1] | Bacterial Biotransformation [2] | Bacterial Biotransformation [3] | Bacterial Biotransformation [4] | Bacterial Biotransformation [5] | Bacterial Biotransformation [6] | Bacterial Biotransformation [7] | Bacterial Biotransformation [8] | Bacterial Biotransformation [9] | Bacterial Biotransformation [10] | Bacterial Biotransformation [11] | Bacterial Biotransformation [12] | Bacterial Biotransformation [13] | Bacterial Biotransformation [14] | Bacterial Biotransformation [15] | Bacterial Biotransformation [16] | Bacterial Biotransformation [17] | Bacterial Biotransformation [18] | Bacterial Biotransformation [19]
CC(C)NCC(O)COc1ccc(CC(N)=O)cc1 (stereo unspecified) [ATENOLOL] | Compound NOT metabolized | Compound NOT metabolized | Compound NOT metabolized | Compound NOT metabolized | Compound NOT metabolized | Compound NOT metabolized | Compound NOT metabolized | Compound NOT metabolized | Compound NOT metabolized | Compound NOT metabolized | Compound NOT metabolized | Compound NOT metabolized | Compound NOT metabolized | Compound NOT metabolized | – | – | – | – | –
CC(C)(Oc1ccc(CCNC(=O)c2ccc(Cl)cc2)cc1)C(=O)O [BEZAFIBRATE] | Compound metabolized | Compound metabolized | Compound metabolized | Compound metabolized | Compound metabolized | Compound metabolized | Compound metabolized | Compound NOT metabolized | Compound metabolized | Compound NOT metabolized | Compound metabolized | Compound metabolized | Compound NOT metabolized | Compound metabolized | Compound metabolized | Compound metabolized | Compound metabolized | Compound metabolized | –
Br.CN(C)CCCC1(c2ccc(F)cc2)OCc2cc(C#N)ccc21 (stereo unspecified) [CITALOPRAM HYDROBROMIDE] | Compound NOT metabolized | Compound NOT metabolized | Compound NOT metabolized | Compound NOT metabolized | Compound NOT metabolized | Compound NOT metabolized | Compound NOT metabolized | Compound NOT metabolized | Compound NOT metabolized | Compound NOT metabolized | – | Compound NOT metabolized | Compound NOT metabolized | Compound NOT metabolized | – | Compound NOT metabolized | Compound NOT metabolized | – | Compound NOT metabolized
CN1C[C@H](C(=O)N[C@]2(C)O[C@@]3(O)[C@@H]4CCCN4C(=O)[C@H](Cc4ccccc4)N3C2=O)C=C2c3cccc4[nH]cc(c34)C[C@H]21.CN1C[C@H](C(=O)N[C@]2(C)O[C@@]3(O)[C@@H]4CCCN4C(=O)[C@H](Cc4ccccc4)N3C2=O)C=C2c3cccc4[nH]cc(c34)C[C@H]21.O=C(O)C(O)C(O)C(=O)O [ERGOTAMINE TARTRATE] | Compound metabolized | Compound metabolized | Compound NOT metabolized | Compound metabolized | Compound metabolized | Compound metabolized | Compound metabolized | Compound metabolized | Compound metabolized | – | Compound metabolized | Compound metabolized | Compound metabolized | – | Compound metabolized | – | Compound metabolized | Compound metabolized | –
CCOc1cc(CC(=O)N[C@@H](CC(C)C)c2ccccc2N2CCCCC2)ccc1C(=O)O [REPAGLINIDE] | Compound metabolized | – | Compound NOT metabolized | Compound metabolized | Compound metabolized | Compound NOT metabolized | Compound NOT metabolized | Compound metabolized | Compound NOT metabolized | Compound NOT metabolized | Compound metabolized | Compound metabolized | Compound NOT metabolized | Compound NOT metabolized | Compound metabolized | Compound metabolized | – | Compound metabolized | Compound metabolized
CN1C(=O)CCS(=O)(=O)C1c1ccc(Cl)cc1 (stereo unspecified) [CHLORMEZANONE] | Compound NOT metabolized | Compound NOT metabolized | – | Compound NOT metabolized | Compound NOT metabolized | Compound NOT metabolized | Compound NOT metabolized | Compound metabolized | Compound NOT metabolized | – | Compound NOT metabolized | Compound NOT metabolized | Compound NOT metabolized | – | – | Compound NOT metabolized | Compound NOT metabolized | Compound NOT metabolized | Compound NOT metabolized
COc1ccc2c(c1OC)C(=O)O[C@@H]2[C@H]1c2c(cc3c(c2OC)OCO3)CCN1C [NOSCAPINE] | Compound metabolized | Compound NOT metabolized | Compound metabolized | Compound metabolized | Compound metabolized | Compound metabolized | Compound metabolized | Compound metabolized | Compound metabolized | – | Compound metabolized | Compound metabolized | Compound metabolized | Compound metabolized | Compound metabolized | Compound NOT metabolized | Compound NOT metabolized | Compound metabolized | Compound NOT metabolized
CN/C(=N/CCSCc1nc[nH]c1C)NC#N [CIMETIDINE] | – | Compound NOT metabolized | Compound NOT metabolized | Compound NOT metabolized | Compound NOT metabolized | Compound NOT metabolized | Compound NOT metabolized | Compound NOT metabolized | – | Compound NOT metabolized | Compound NOT metabolized | Compound NOT metabolized | Compound NOT metabolized | Compound NOT metabolized | Compound metabolized | Compound NOT metabolized | Compound metabolized | Compound metabolized | –
NC12CC3CC(CC(C3)C1)C2 [AMANTADINE] | Compound NOT metabolized | – | Compound NOT metabolized | Compound NOT metabolized | Compound NOT metabolized | Compound NOT metabolized | Compound NOT metabolized | Compound NOT metabolized | Compound NOT metabolized | Compound NOT metabolized | Compound NOT metabolized | Compound NOT metabolized | Compound NOT metabolized | Compound NOT metabolized | Compound NOT metabolized | Compound NOT metabolized | – | Compound metabolized | Compound NOT metabolized
